Test results taken from patent US20240245677A1, “SELECTED COMPOUNDS FOR TARGETED DEGRADATION OF BRD9” (C4 THERAPEUTICS, INC., priority 2021, published 2024).
Where “and” joins values, the source holds several entries; their conditions need not be identical. Equal values may be shown once. Read-outs that look alike come from different tables or passages of the source.

Test: Pharmacokinetic study in male CD1 mice
Assay type: in vivo, mouse
Settings: for concentration at 0.033 h / concentration at 0.33 h / concentration at 1 h / concentration at 2 h / concentration at 4 h / concentration at 8 h / concentration at 24 h / AUC(0-t): male, CD1, mouse
Method: The pharmacokinetic (PK) profile in plasma of Compound 1 was determined in male CD1 mice following single dose intravenous (IV) (2 mg/kg) and per os (PO) (10 mg/kg) administration. This study was performed under non-GLP conditions, and unless otherwise stated, all analytical reagents were at least standard laboratory reagent grade, and deionized water was prepared at the study site. The characteristics of Compound 1 used in this study were as follows: molecular weight of base, 710.78; molecular weight of Compound 1 with salt, 824.81; purity on as is basis, 99.28%. All animals were housed in cages with clean bedding and maintained and monitored for good health and at the discretion of the laboratory animal veterinarian. Certified rodent diet was provided, and water was available ad libitum. […] Normal healthy animals certified by the attending veterinarian were selected and acclimatized for a minimum of three days prior to initiation of the study. Animals were identified by body markings. Test animals were weighed prior to drug administration, and the standard weight of the animals used was 30 grams. The animals were divided into two groups, IV group and PO group, with each group containing 3 test animals each and 2 spare animals. The IV dose was administered by intravenous injection into the tail vein and PO dose was administered via oral gavage. The dosing volume was 5 mL/kg body weight for both groups. The dosing concentration was 0.4 mg/mL for the IV group and 2 mg/mL for the PO group. The animals were in fasted state during the study. For both dosing groups, blood was collected from the saphenous vein (serial sampling) for plasma isolation at 0.033, 0.33, 1, 2, 4, 6, 8, and 24 hour timepoints. The anti-coagulant solution used was 6% (v/v) sodium citrate (200 mM, pH 4.79). For sample collection, the mice were restrained, and the back of the hind leg was shaved until the saphenous vein was visible. The hind limb was immobilized, and slight pressure was applied gently above the knee joint. While taking aseptic precautions, the vein was punctured using a 20 G needle and 20-30 μL of blood was collected in pre-labeled pre-chilled tubes. After blood collection from each animal, the sample from that animal was recorded in the sample collection sheet. After collection of each blood sample, the blood sample was stored on ice prior to centrifugation. Blood samples were centrifuged within 0.5 hours of collection to separate plasma. Centrifugation was conducted at 2500×g for 15 minutes at 4° C. The plasma was separated and transferred to pre-labeled micro-centrifuge tubes and promptly frozen at -80° C.±10° C. and stored until bioanalysis was performed. Each sample was identified by test compound, group, animal number, and collection time point. A fit-for-purpose bioanalytical method was developed for analyzing the plasma samples. One set of nine standards was run before the sample batch and was used for plotting the calibration curve. Quality control (QC) samples were prepared at a minimum of three concentrations, i.e., LQC (not more than 5 times to that of lowest standard concentration), HQC (not less than 75% of the highest standard concentration), and MQC (between the low and high concentration). A minimum of 6 QC samples were prepared (three concentrations in duplicate). One set of QC (LQC, MQC and HQC) samples were analyzed before and after the sample batch. Samples were analyzed by Exion AD (Sciex, Framingham, MA, USA) high-pressure liquid chromatography (HPLC) system followed by tandem mass spectroscopy analysis (MS/MS) with Q TRAP 4500 (Sciex, Framingham, MA). The samples were resolved on a Kinetex® EVO C18 4.5*50 mm, 5 μm column (Phenomenex, Inc., Torrance, CA, USA). […] The flow rate was set at 1 mL/min. […] A positive electrospray ionization (ESI) method was used for detecting analytes and internal standard by mass spectroscopy. The MRM conditions were […]

[1] = mouse, plasma, male CD1 mice, 2 mg/kg IV, Mean
[2] = mouse, plasma, male CD1 mice, 10 mg/kg PO, Mean

## COc1cc(-c2cn(C)c(=O)c(C)c2C)cc(OC)c1CN1CC[C@H](N2CCN(c3ccc(N[C@H]4CCC(=O)NC4=O)cc3F)CC2)C(F)(F)C1 [Compound 1, (S)-3-((4-(4-((S)-1-(2,6-dimethoxy-4-(1,4,5-trimethyl-6-oxo-1,6-dihydropyridin-3-yl)benzyl)-3,3-difluoropiperidin-4-yl)piperazin-1-yl)-3-fluorophenyl)amino)-piperidine-2,6-dione]
2 mg/kg IV, 0.033 h
  Plasma Concentration, individual mice: 1.28285 µg/mL and 1.23025 µg/mL
2 mg/kg IV, 0.33 h
  Plasma Concentration, individual mice: 1.06992 µg/mL and 0.90703 µg/mL
2 mg/kg IV, 1 h
  Plasma Concentration, individual mice: 0.77891 µg/mL and 0.55487 µg/mL
2 mg/kg IV, 2 h
  Plasma Concentration, individual mice: 0.5302 µg/mL and 0.55112 µg/mL
2 mg/kg IV, 4 h
  Plasma Concentration, individual mice: 0.40236 µg/mL and 0.39841 µg/mL
2 mg/kg IV, 8 h
  Plasma Concentration, individual mice: 0.23084 µg/mL and 0.27905 µg/mL
2 mg/kg IV, 24 h
  Plasma Concentration, individual mice: 0.00814 µg/mL and 0.01081 µg/mL
10 mg/kg PO, 0.033 h
  Plasma Concentration, individual mice: 0.11339 µg/mL and 0.04523 µg/mL and 0.02934 µg/mL
10 mg/kg PO, 0.33 h
  Plasma Concentration, individual mice: 1.35089 µg/mL and 1.80533 µg/mL
10 mg/kg PO, 1 h
  Plasma Concentration, individual mice: 3.70263 µg/mL and 3.51339 µg/mL
10 mg/kg PO, 2 h
  Plasma Concentration, individual mice: 3.23677 µg/mL and 3.06959 µg/mL
10 mg/kg PO, 4 h
  Plasma Concentration, individual mice: 1.77548 µg/mL and 1.63506 µg/mL
10 mg/kg PO, 8 h
  Plasma Concentration, individual mice: 1.09497 µg/mL and 0.68792 µg/mL
10 mg/kg PO, 24 h
  Plasma Concentration, individual mice: 0.04019 µg/mL and 0.03509 µg/mL
Male CD1 mice, 2 mg/kg IV, Mean
  CI: 0.3721 L/h/kg
plasma, intravenous, 2 mg/kg, 2 mg/kg IV, 0.033 h, read-out: Plasma Concentration, Average
  concentration at 0.033 h: 1.4 µg/mL
plasma, intravenous, 2 mg/kg, 2 mg/kg IV, 0.033 h, read-out: Plasma Concentration, individual mice
  concentration at 0.033 h: 1.69 µg/mL
plasma, intravenous, 2 mg/kg, 2 mg/kg IV, 0.33 h, read-out: Plasma Concentration, Average
  concentration at 0.33 h: 1.09 µg/mL
plasma, intravenous, 2 mg/kg, 2 mg/kg IV, 0.33 h, read-out: Plasma Concentration, individual mice
  concentration at 0.33 h: 1.3 µg/mL
plasma, intravenous, 2 mg/kg, 2 mg/kg IV, 1 h, read-out: Plasma Concentration, Average
  concentration at 1 h: 0.76 µg/mL
plasma, intravenous, 2 mg/kg, 2 mg/kg IV, 1 h, read-out: Plasma Concentration, individual mice
  concentration at 1 h: 0.947 µg/mL
plasma, intravenous, 2 mg/kg, 2 mg/kg IV, 2 h, read-out: Plasma Concentration, Average
  concentration at 2 h: 0.63 µg/mL
plasma, intravenous, 2 mg/kg, 2 mg/kg IV, 2 h, read-out: Plasma Concentration, individual mice
  concentration at 2 h: 0.809 µg/mL
plasma, intravenous, 2 mg/kg, 2 mg/kg IV, 4 h, read-out: Plasma Concentration, Average
  concentration at 4 h: 0.456 µg/mL
plasma, intravenous, 2 mg/kg, 2 mg/kg IV, 4 h, read-out: Plasma Concentration, individual mice
  concentration at 4 h: 0.567 µg/mL
plasma, intravenous, 2 mg/kg, 2 mg/kg IV, 8 h, read-out: Plasma Concentration, Average
  concentration at 8 h: 0.256 µg/mL
plasma, intravenous, 2 mg/kg, 2 mg/kg IV, 8 h, read-out: Plasma Concentration, individual mice
  concentration at 8 h: 0.257 µg/mL
plasma, intravenous, 2 mg/kg, 2 mg/kg IV, 24 h, read-out: Plasma Concentration, Average
  concentration at 24 h: 0.0102 µg/mL
plasma, intravenous, 2 mg/kg, 2 mg/kg IV, 24 h, read-out: Plasma Concentration, individual mice
  concentration at 24 h: 0.0115 µg/mL
plasma, iv, 2 mg/kg, male CD1 mice, 2 mg/kg IV, Mean
  AUC(0-t): 5.39 µg·h/mL
plasma, oral, 10 mg/kg, 10 mg/kg PO, 0.033 h, read-out: Plasma Concentration, Average
  concentration at 0.033 h: 0.0627 µg/mL
plasma, oral, 10 mg/kg, 10 mg/kg PO, 0.33 h, read-out: Plasma Concentration, Average
  concentration at 0.33 h: 1.75 µg/mL
plasma, oral, 10 mg/kg, 10 mg/kg PO, 0.33 h, read-out: Plasma Concentration, individual mice
  concentration at 0.33 h: 2.1 µg/mL
plasma, oral, 10 mg/kg, 10 mg/kg PO, 1 h, read-out: Plasma Concentration, Average
  concentration at 1 h: 3.37 µg/mL
plasma, oral, 10 mg/kg, 10 mg/kg PO, 1 h, read-out: Plasma Concentration, individual mice
  concentration at 1 h: 2.89 µg/mL
plasma, oral, 10 mg/kg, 10 mg/kg PO, 2 h, read-out: Plasma Concentration, Average
  concentration at 2 h: 3.15 µg/mL
plasma, oral, 10 mg/kg, 10 mg/kg PO, 2 h, read-out: Plasma Concentration, individual mice
  concentration at 2 h: 3.15 µg/mL
plasma, oral, 10 mg/kg, 10 mg/kg PO, 4 h, read-out: Plasma Concentration, Average
  concentration at 4 h: 1.77 µg/mL
plasma, oral, 10 mg/kg, 10 mg/kg PO, 4 h, read-out: Plasma Concentration, individual mice
  concentration at 4 h: 1.88 µg/mL
plasma, oral, 10 mg/kg, 10 mg/kg PO, 8 h, read-out: Plasma Concentration, Average
  concentration at 8 h: 0.983 µg/mL
plasma, oral, 10 mg/kg, 10 mg/kg PO, 8 h, read-out: Plasma Concentration, individual mice
  concentration at 8 h: 1.17 µg/mL
plasma, oral, 10 mg/kg, 10 mg/kg PO, 24 h, read-out: Plasma Concentration, Average
  concentration at 24 h: 0.0378 µg/mL
plasma, oral, 10 mg/kg, 10 mg/kg PO, 24 h, read-out: Plasma Concentration, individual mice
  concentration at 24 h: 0.0382 µg/mL
plasma, po, 10 mg/kg, male CD1 mice, 10 mg/kg PO, Mean, first AUClast column
  AUC(0-t): 20 µg·h/mL
plasma, po, 10 mg/kg, male CD1 mice, 10 mg/kg PO, Mean, second AUClast column
  AUC(0-t): 20.2 µg·h/mL
[1]
  AUC(0-inf): 5.45 µg·h/mL
  C0: 1.44 µg/mL
  MRT last: 5.15 h
  half-life: 3.65 h
mouse, plasma, male CD1 mice, 2 mg/kg IV, Mean, read-out: Vdss
  Vd: 2.01 L/kg
[2]
  Cmax: 3.46 µg/mL
  MRT last: 5.38 h
  Tmax: 1.33 h
  bioavailability: 74.1%
  half-life: 3.54 h
